{"source": "patent US20090111836A1", "about": "“Angular Pyranocoumarins, Process for Preparation and Uses Thereof” (CITY UNIVERSITY OF HONG KONG, priority 2007, published 2009)", "assay_type_in_all_cases": "cell-based, human", "key": {"P-gp [1]": {"tested_on": "P-gp", "assay": "Immunoblotting analysis of P-gp expression, K562-DR", "conditions": "4 μM, 72 hours", "description": "(§1) Immunoblotting analysis of P-gp expression: cells were treated with 4 μM of cis-DMDCK, 4 μM of cis-DMDBK, 4 μM of trans-DMDCK, or 4 μM of trans-DMDBK for 72 hours. Treated cells were collected and mixed well in ice-cold lysis buffer (50 mM Tris pH7.4, 100 mM NaCl, 2 mM EDTA, 1% sodium deoxycholate, 0.1% SDS, 1% triton X-100, 2 mM PMSF, 1% aprotinin) for 30 minutes and then centrifuged to get the total protein. Protein concentration was determined using Bradford assay. In this experiment, 50 μg total protein was separated by 8% SDS-PAGE and electro-transferred to nitrocellulose membranes. The membrane was blocked by 5% skim milk/0.1% Tween-20/TBS (10 mM Tris pH7.5, 100 mM NaCl), and then incubated with anti-P-pg antibody for 1 hour, followed by horseradish-peroxidase-conjugated secondary antibody for another 1 hour. Protein bands were detected by the ECL method."}, "HepG2-DR cells [2]": {"tested_on": "HepG2-DR cells", "assay": "Cell cycle distribution by flow cytometry (doxorubicin-induced G2/M arrest), HepG2-DR", "conditions": "HepG2-DR; for Cell cycle distribution, G0/G1 / Cell cycle distribution, G2/M / Cell cycle distribution, S / Cell cycle distribution, SubG1: 48 h", "description": "1.2 Instruments: FACSCAN flow cytometry (Becton Dickinson Immunocytometry Systems, San Jose, Calif.), the obtained data were analyzed using the software of Macintosh CellQuest.\n1.3 Cell lines: HepG2, HepG2-DR.\n1.4 Drug treatment: HepG2 and HepG2-DR cells were respectively treated with each of cis-DMDCK, cis-DMDBK, trans-DMDCK, trans-DMDBK and doxorubicin for 48 hours, or treated respectively with the combination of doxorubicin and one of cis-DMDCK, cis-DMDBK, trans-DMDCK, trans-DMDBK for 48 hours.\n1.5 Treatment and detection of sample cells: after washed twice by ice-cold PBS, the cells were fixed with 70% ethanol at −20° C. overnight. The fixed cells were washed by PBS once and resuspended in 1 mL of PBS containing 100 μg/mL RNAase A and incubated at 37° C. for 30 minutes. Finally, propidium iodide solution (final concentration is 40 μg/mL,) was added to bind with DNA and incubated at room temperature for 5-10 minutes. Cells were analyzed by FACSCAN flow cytometry immediately."}, "P-gp [3]": {"tested_on": "P-gp", "assay": "Immunoblotting analysis of P-gp expression, KB V1", "conditions": "KB V1, 4 μM, 72 hours", "description": "as §1"}, "HepG2-DR cells [4]": {"tested_on": "HepG2-DR cells", "assay": "SRB growth inhibition assay, HepG2-DR", "conditions": "IC50 HepG2-DR / IC50 HepG2", "description": "K562, K562-DR, HepG2, HepG2-DR were cultured in RPMI-1640 medium containing 10% fetal bovine serum and 100 U/mL, antibiotics. […] Drug test: […] New calorimetric cytotoxicity assay for anticancer-drug screening. […] Mosmann T. Rapid colorimetric assay for cellular growth and survival: application to proliferation and cytotoxicity assays. […] Gerlier D, Thomasset N. […] Each growth inhibition experiment must be repeated three times and results are expressed as mean±standard deviation (SD). Solvents and media were included as blank control. In SRB assay, cells are inoculated at 5000 cells/well in a 96-well microplate and incubated overnight to let cells adhere. Drug treatment lasts for 72 hours and cells are fixed for 1 hour at 4° C. with 50 μl ice-cold 15% trichloroacetic acid and washed with triple-distilled water 5 times. […] The protein-bound dye is dissolved in 100 μl per well of 10 mM Tris base (pH 10.5). The color intensity of SRB, which positively correlate to cell number in preliminary experiments, is estimated at OD 515 nm."}, "K562-DR cells": {"tested_on": "K562-DR cells", "assay": "Reversal of multidrug resistance (fold decrease of anticancer drug IC50), K562-DR", "conditions": "4 μM test compound", "description": "Cells and cell culture: cell lines used in the experiments are human hepatoma cell line (HepG2), human leukemia cell line (K562), human epidermoid carcinoma cell line (KB-3-1) and their multidrug resistant sublines HepG2-DR, K562-DR. and KB V1. The culture conditions for all cells are following: at 37° C. and 5% CO2), KB-3-1 and KBV1 were cultured in MEM medium containing 10% fetal bovine serum and 100 U/mL antibiotics; K562, K562-DR, HepG2, HepG2-DR were cultured in RPMI-1640 medium containing 10% fetal bovine serum and 100 U/mL, antibiotics. For maintaining the phenotypic characteristics of multidrug resistance, 1.2 μM and 0.1 μM doxorubicin were respectively added into the mediums of HepG2-DR and K562-DR; 200 ng/mL vinblastine was added into the medium of KBV1. Drug resistant cells were grown in drug free medium for at least 7 days before test.\nEach growth inhibition experiment must be repeated three times and results are expressed as mean±standard deviation (SD). Solvents and media were included as blank control.\nIn MTT assay, cells are inoculated at 5000 cells/well and are incubated overnight. Drug treatment lasts for 68 h. MTT (5 mg/ml in PBS) is added to each well (1:10 dilution). After incubation for 4 hour at 37° C., 5% CO2, 100 μl of stop solution (10% SDS-50% isobutanol-0.01N HCl) is added to each well to stop the reaction. Viable cell number is estimated by correlating to OD at 570 nm.\n1. Materials and methods: the same with I.\nTo evaluate the multidrug resistance reversing ability of (±)-Praeruptorin A derivatives, IC50 values of anticancer drugs in the presence and absence of cis-DMDCK, cis-DMDBK, trans-DMDCK, or trans-DMDBK at certain concentration were determined in HepG2-DR, K562-DR and KB V1 cells. The fold decrease of IC50 value of an anticancer drug in certain cell line achieved by a test compound is calculated (fold decrease=IC50 of an anti-tumor drug alone/IC50 of the anti-tumor drug in combination with the test compound) and is used for evaluating the ability of the test compound to reduce drug resistance. The larger the fold decrease value is, the stronger its ability to reverse drug resistance is. The results were average values of three repetitive tests. Verapamil (P-glycoprotein modulator) is the positive control."}, "[5]": {"conditions": "1 μM doxorubicin + 0.5 μM test compound"}, "[6]": {"conditions": "1 μM doxorubicin + 1 μM test compound"}, "[7]": {"conditions": "1 μM doxorubicin + 2 μM test compound"}}, "note": "“Also recorded” adds a separate entry of the source."}
{"molecule": "COc1ccc(C(=O)O[C@@H]2c3c(ccc4ccc(=O)oc34)OC(C)(C)[C@@H]2OC(=O)c2ccc(OC)c(OC)c2)cc1OC", "note": "(racemic) [cis-DMDBK, (±)-3′-O,4′-O-bis(3,4-dimethoxybenzoyl)-cis-khellactone]", "values": [{"measurement": "Change in P-gp (MDR1) expression level", "setting": "P-gp [1]", "value": "no detectable alteration; also recorded: not observed"}, {"measurement": "Cell cycle distribution, G0/G1", "setting": "HepG2-DR cells [2]; [5]", "value": "35.82 ± 2.26", "unit": "%"}, {"measurement": "Cell cycle distribution, G2/M", "setting": "HepG2-DR cells [2]; [5]", "value": "52.79 ± 5.64", "unit": "%"}, {"measurement": "Cell cycle distribution, S", "setting": "HepG2-DR cells [2]; [5]", "value": "6.44 ± 0.77", "unit": "%"}, {"measurement": "Cell cycle distribution, SubG1", "setting": "HepG2-DR cells [2]; [5]", "value": "2.92 ± 1.09", "unit": "%"}, {"measurement": "Cell cycle distribution, G0/G1", "setting": "HepG2-DR cells [2]; [6]", "value": "13.52 ± 1.36", "unit": "%"}, {"measurement": "Cell cycle distribution, G2/M", "setting": "HepG2-DR cells [2]; [6]", "value": "73.03 ± 1.89", "unit": "%"}, {"measurement": "Cell cycle distribution, S", "setting": "HepG2-DR cells [2]; [6]", "value": "5.85 ± 3.09", "unit": "%"}, {"measurement": "Cell cycle distribution, SubG1", "setting": "HepG2-DR cells [2]; [6]", "value": "4.08 ± 0.81", "unit": "%"}, {"measurement": "Cell cycle distribution, G0/G1", "setting": "HepG2-DR cells [2]; [7]", "value": "3.74 ± 0.76", "unit": "%"}, {"measurement": "Cell cycle distribution, G2/M", "setting": "HepG2-DR cells [2]; [7]", "value": "79.01 ± 6.01", "unit": "%"}, {"measurement": "Cell cycle distribution, S", "setting": "HepG2-DR cells [2]; [7]", "value": "6.86 ± 2.57", "unit": "%"}, {"measurement": "Cell cycle distribution, SubG1", "setting": "HepG2-DR cells [2]; [7]", "value": "7.13 ± 6.57", "unit": "%"}, {"measurement": "Effect on cell cycle by itself", "setting": "HepG2-DR cells [2]; 4 μM alone", "value": "no effect"}, {"measurement": "Cell cycle distribution, G0/G1", "setting": "HepG2-DR cells [2]; 4 μM alone", "value": "52.36 ± 0.98", "unit": "%"}, {"measurement": "Cell cycle distribution, G2/M", "setting": "HepG2-DR cells [2]; 4 μM alone", "value": "34.36 ± 0.42", "unit": "%"}, {"measurement": "Cell cycle distribution, S", "setting": "HepG2-DR cells [2]; 4 μM alone", "value": "7.66 ± 3.22", "unit": "%"}, {"measurement": "Cell cycle distribution, SubG1", "setting": "HepG2-DR cells [2]; 4 μM alone", "value": "2.27 ± 0.49", "unit": "%"}, {"measurement": "Concentration of test compound that reduced the effective doxorubicin concentration (G2/M arrest) from 50 to 1 μM", "setting": "HepG2-DR cells [2]; combination with doxorubicin", "value": 2, "unit": "µM"}, {"measurement": "Change in P-gp (MDR1) expression level", "setting": "P-gp [3]", "value": "no detectable alteration; also recorded: not observed"}, {"measurement": "Resistant ratio", "setting": "HepG2-DR cells [4]", "value": 1.19}, {"measurement": "Reversing parameter: fold decrease of IC50, verapamil", "setting": "K562-DR cells", "value": "105.8 ± 51.1", "unit": "fold"}, {"measurement": "Reversing parameter: fold decrease of IC50 of Doxorubicin", "setting": "K562-DR cells", "value": "18.9 ± 7.9", "unit": "fold"}, {"measurement": "Reversing parameter: fold decrease of IC50 of Puromycin", "setting": "K562-DR cells", "value": "21.8 ± 3.1", "unit": "fold"}, {"measurement": "Reversing parameter: fold decrease of IC50 of Vinblastine", "setting": "K562-DR cells", "value": "75.6 ± 21.3", "unit": "fold"}]}
